Measurements from ChEMBL document CHEMBL1201862, “PubChem BioAssay data set” (2004).
The source made the active and inactive calls. For most assays here, no stated cut-off is given here; in the data, actives have a measured EC50 and inactives only a lower limit.

What was measured:
cells [1] = assay type: functional, cell-based
[2] = tested on: Streptococcus sp. 'group A'; experiment: growth inhibition of control SK(-) GAS strain, dose response, counter-screen for streptokinase expression inhibitor project, luminescence, kanamycin, BacTiterGlo, confirmation (AID 1900); assay type: functional, organism-based
cells [3] = assay type: functional, cell-based; remark: listed apart in the source
Streptokinase A = target: T1, Streptokinase A (Streptococcus pyogenes serotype M1, UniProt P10520); experiment: S. pyogenes streptokinase expression inhibitors, potency, dose response, plasminogen activation absorbance, OD405 (AID 1914); assay type: functional, Streptococcus pyogenes M1 GAS;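 further: secreted streptokinase activity via plasminogen activation per viability signal from cell pellet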
T1 sequence (P10520 whole entry): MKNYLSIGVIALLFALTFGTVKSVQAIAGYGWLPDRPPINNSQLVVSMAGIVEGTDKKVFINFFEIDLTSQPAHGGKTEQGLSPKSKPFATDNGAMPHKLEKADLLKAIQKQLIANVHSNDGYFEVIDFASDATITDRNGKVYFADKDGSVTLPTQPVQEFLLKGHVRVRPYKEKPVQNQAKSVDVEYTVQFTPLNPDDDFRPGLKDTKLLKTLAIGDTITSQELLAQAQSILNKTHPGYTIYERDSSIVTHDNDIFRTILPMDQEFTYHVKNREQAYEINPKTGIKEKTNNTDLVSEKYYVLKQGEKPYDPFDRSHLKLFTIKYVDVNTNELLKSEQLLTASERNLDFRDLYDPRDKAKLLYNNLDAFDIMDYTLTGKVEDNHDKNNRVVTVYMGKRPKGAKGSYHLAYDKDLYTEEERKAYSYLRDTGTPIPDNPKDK

Streptococcus = experiment: Group A Streptococcus viability loss, dose response, counter-screen for streptokinase expression inhibitor project, luminescence, BacTiterGlo (AID 1915); assay type: functional, organism-based;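 further: potency for reduction of bacterial viability or growth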
[4] = target: FAD-linked sulfhydryl oxidase ALR (Homo sapiens, UniProt P55789); experiment: inhibitors of human ALR sulfhydryl oxidase, dose response, biochemical, H2O2 detection, luminescence, cherry-pick (AID 493248)
Chain of FAD-linked sulfhydryl oxidase ALR (P55789 whole entry): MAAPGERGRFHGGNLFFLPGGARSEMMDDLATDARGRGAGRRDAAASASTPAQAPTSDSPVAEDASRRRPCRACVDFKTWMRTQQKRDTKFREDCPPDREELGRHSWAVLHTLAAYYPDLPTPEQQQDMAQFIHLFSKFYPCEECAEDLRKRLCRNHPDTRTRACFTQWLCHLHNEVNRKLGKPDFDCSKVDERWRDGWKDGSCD

[5] = HEp-2 cell cytotoxicity, dose response, cytotoxicity control for RSV inhibitor project, HTS (AID 2410); assay type: functional; settings: human respiratory syncytial virus
[6] = Luminescence Cell-Based Dose Retest to Confirm Inhibitors of Cancer Stem Cells. [Related pubchem assays (depositor defined):AID2717, AID2721]; assay type: functional; settings: Homo sapiens
[7] = NIH-3T3 fibroblast cytotoxicity, dose response, cytotoxicity control, cell-based, fluorescence, Alamar Blue, secondary assay (AID 2327); assay type: functional;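 further: NIH-3T3 mouse fibroblasts cultured with fluconazole at 8 µg/mL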

| SMILES | EC50 [2] | EC50 (Streptokinase A) | EC50 (Streptococcus) | CC50 [5] | also measured |
| --- | --- | --- | --- | --- | --- |
| O=C(NCCS(=O)(=O)N1CCN(c2ccccc2F)CC1)C1CC(=O)N(c2ccc(F)cc2)C1 (stereo not drawn) | > 150 µM (not active) | > 150 µM (not active) | > 150 µM (not active) |  | EC50 (cells [1]): > 350 µM (not active); EC50 (cells [3]): > 350 µM (not active) |
| CC(C)(C)c1ccc(-c2nc3cc(N)ccc3o2)cc1 |  |  |  |  | AC50 [4]: 751 nM (active) |
| C=CCOc1cccc(/C=C2\C(=O)N(Cc3ccc(C)cc3)C(C)=C2C(=O)OC)c1 |  |  |  | 29.7 µM (active) | AC50 [6]: 5.38 µM (active) |
| O=C(c1cccs1)N1N=C(c2ccccc2)CC1c1ccccc1 (stereo not drawn) | 6.85 µM (active) | > 150 µM (not active) | 16.2 µM (active) |  |  |
| Cc1ccc(C)c(OC(=O)c2cncc(Br)c2)c1 |  |  |  |  | EC50 [7]: > 160 µM (inactive) |
| CC(C)CC(=O)Nc1cccc(-c2csc(-c3ccccc3)n2)c1 |  |  |  | 17.9 µM (active) |  |
| Cc1ccc2c(CSc3nc4ccccc4c(=O)n3CCCO)cc(=O)oc2c1C |  |  |  | 30.5 µM (active) |  |
| CCCCOC(=O)c1ccc(NC(=S)N2CCN(c3ncc4c(=O)c(C(=O)O)cn(CC)c4n3)CC2)cc1 | 0.801 µM (active) | > 150 µM (not active) | 2.62 µM (active) |  |  |
| Cc1c(N=C2N=C(NC(=O)c3cccs3)c3ccccc32)c(=O)n(-c2ccccc2)n1C |  |  |  | 18.7 µM (active) |  |
| COc1ccc2c(c1)CCc1cnc(N)nc1-2 |  |  |  | 24.4 µM (active) |  |
| COCCNC(=O)Nc1ccc2nc(-c3cccs3)c(-c3cccs3)nc2c1 |  |  |  | 33.1 µM (active) |  |
| Cn1c(SCC(=O)NC2(C#N)CCCCC2)nnc1-c1cccnc1 | > 150 µM (not active) | > 150 µM (not active) | > 150 µM (not active) |  |  |
